Measured values: patent US10849959B2, “Formulation, dosage form and method of reducing knee pain” (ORTHOTROPHIX, INC., priority 2017, dated 2020)
Like-named read-outs stand apart in the source and are kept apart here.

Experiments:
[1] = test system: subjects with bilateral patello-femoral knee osteoarthritis; assay: Randomized double-blind placebo-controlled clinical study of TPX-100, efficacy by KOOS/WOMAC patient reported outcomes; assay type: in vivo, human; settings: for Severity of pain going up or down stairs, treated vs placebo-treated knee (in words): p=0.004; for Pain alleviation in other activities or statuses of KOOS pain: activities other than going up or down stairs (and bending knee fully), any time point; for Knee functions, KOOS ADL (Function of Daily Living) and WOMAC function, treated vs placebo-treated knees: both 6 and 12 months after treatment, FIG. 12
Description: For this activity, the peptide of SEQ ID No. 1 was tested for its clinical safety and efficacy on a condition involving cartilage damage in a Phase 2 randomized double-blind controlled clinical trial with mild to severe knee osteoarthritis (OA) patients. See EXAMPLES.
The KOOS ADL (Function of Daily Living) consists of 17 questions asking degree of difficulty in functioning each knee during 17 different activities in daily living. Those 17 activities are broadly ranged from light to heavy duties. With regard to each activity, difficulty of each knee function is scored in 0-4 range where 0 as no difficulty and 4 as the most difficulty. The sum of the scores range from 0 to 68 (4×17), which is then converted to a 0-100 scale is KOOS ADL score. WOMAC function consists of the same questions with same scoring, except the total score range is not converted to 0-100 but remains 0-68.
The KOOS pain domain consists of 9 questions and each question is scored in 0-4 range. The sum of the scores, 0-36 (4×9), which is converted to a 0-100 scale to generate a KOOS pain score. While the first of the 9 questions asks for the frequency of knee pain, the other 8 questions ask for severity of knee pain during different activities or positions, where 0 is “never” experiencing pain and 4 is “always” experiencing pain. These 8 activities range from positions with little to no motion such as “at night while in bed” to those with high joint loading such as “going up or down stairs” (See FIG. 2). WOMAC pain consists of the same questions with the same scoring, except that the total score is not converted to a 100-point scale but remains in the range 0-36.
MRIs of both knees were evaluated by a central reader to determine the ICRS grade (gICRS) of each knee. If the cartilage of patello-femoral compartment in both knees fell within ICRS grades 1-3, or 4 with only focal defects, no defects greater than 1 cm, and all other inclusion criteria were met, with none of the exclusion criteria, the subject was registered. The randomization center randomized each subject to either Right knee active or Left knee active, with the active knee to receive TPX-100 and the contralateral knee to receive identical placebo.
For enrolled subjects, there was within-subject randomization, such that one knee received active drug injections, and the contralateral knee received identical placebo injections. Using subjects as their own control permits reduction of confounders such as weight, activity level, pain threshold, and uncharacterized genetic susceptibilities to OA progression. As two knees within a person form a matched set, the effects of individual-level confounders that are difficult to quantify (e.g. level of activity, genetic and epigenetic factors, pain threshold) are eliminated, increasing the power of the study to detect a treatment effect if one is present.
All KOOS subscale scores were analyzed. The primary analysis was carried out using a two-sided paired t-test at the 5% level of significance. The outcome variable was the difference between the change of the score of each subscale of KOOS from baseline in the treated knee (“Index Knee”) and the change from baseline in the placebo-treated knee (“Control Knee”).
Ninety-three (93) subjects who received 200 mg per dose of TPX-100 in one knee and placebo in contralateral knee were analyzed for efficacy.

[2] = test system: subjects with bilateral patello-femoral knee osteoarthritis
Description: Eighteen (18) orthopedic, rheumatologic and family practice centers in the U.S. participated in the study.
A Safety Review Committee (SRC) evaluated safety in each dosing cohort. The SRC assessed safety and dose-limiting toxicities, if evident, and determined whether the next higher dosing regimen might be enrolled. Part A were completed and analyzed with regard to safety prior to dose selection and initiation of Part B.
Six (6) subjects were enrolled in 20, 50, and 100 mg cohorts, respectively, and nine (9) subjects were enrolled in 200 mg cohort. Each dosing cohort was reviewed based on safety analysis of dose groups in Part A.
No other doses of drug or placebo were administered. All subjects visited their respective clinical sites at 3, 6, and 12 months after the first dosing for their safety and efficacy assessments.
On the first dosing day, the randomized subjects were assessed for their general health conditions by physical examinations and vital signs. Further, they completed self-reported assessments of the conditions of each of their knees as well as systemic health by the questionnaires of KOOS (Knee injury and Osteoarthritis Outcome Score), which includes subscales of WOMAC (Western Ontario and McMaster Universities Osteoarthritis Index). KOOS is a questionnaire that assesses knee-specific activities of daily living, sports and recreation function, knee-related quality of life, symptom, and knee pain. […] After these assessments, subjects received one intra-articular injection in each knee, with each injection prepared from the vial(s) marked for that knee. One knee received TPX-100, and the contralateral knee received placebo, in a triple-blind fashion (subject, site, and sponsor all blinded to treatment assignment). Subjects were monitored for adverse events during the injections and for a few hours after the injections. Vital signs were also monitored after the injections.
On the 7th, 14th, and 21st days after the first dosing, subjects received the second, third, and fourth (last) dosing of the same study materials, respectively, as well as safety and adverse event assessments in the same way as the first dosing day.
Subjects returned to their respective study sites at 3, 6 and 12 months after the first dosing day for follow-up evaluations. In addition, the study sites monitored the subject's condition through telephone contact 9 months after the first dosing day. During the 3, 6, and 12 months post-treatment follow-up on-site visits, subjects were evaluated by physical examination, vital signs, serum chemistry, as well as KOOS. Adverse events and concomitant medications were also recorded.

[3] = test system: standardized large cartilage defects; settings: four weekly intra-articular injections, cited from earlier work
[4] = stated as known, no test described, cited from earlier work
[5] = 12 months, 200 mg, listed as peptide of SEQ ID No. 1
[6] = 200 mg, listed as peptide of SEQ ID No. 1

With TDLQERGDNDISPFSGDGQPFKD [TPX-100] as the sequence, how does the “Function improvement across the 17 activities of KOOS ADL, treated vs placebo-treated knee” value ([1]; 200 mg) read?
The value was “observed in most of the 17 light to heavy activities”.

What about the “Frequency of overall knee pain, Index vs Control knees (in words)” value ([1]; 12 months, 200 mg) of the same sequence?
The value was “significantly improved (p=0.04)”.

What about the “Severity of pain bending knee fully, treated vs placebo-treated knee (in words)” value ([1]; 12 months, 200 mg) of the same sequence?
The value was “trend (p<0.09) of improvement”.

What about the “Frequency of overall knee pain, Index vs Control knees (in words)” value [1, 5] of the same sequence?
The value was “significantly reduced”.

What about the “Severity of pain bending knee fully, treated vs placebo-treated knee (in words)” value [1, 5] of the same sequence?
Its value is “near statistically significant pain alleviation”.

What about the “Severity of pain going up or down stairs, treated vs placebo-treated knee (in words)” value ([1]; 12 months, 200 mg) of the same sequence?
The value was “highly significant”.

What about the “Severity of pain going up or down stairs, treated vs placebo-treated knee (in words)” value [1, 5] of the same sequence?
The value was “statistically significant improvement”.

What about the “Score Change from Baseline to 12 Months, Index: How often do you experience RIGHT/LEFT knee pain?” value ([1]; KOOS Pain Question 1 (frequency, score 0-4), TPX-100 treated knees, 200 mg intra-articular, 4 weekly doses, 12 months) of the same sequence?
Its value is −0.62.

What about the “Difference = [Index score change] − [Control score change]: How often do you experience RIGHT/LEFT knee pain?” value ([1]; KOOS Pain Question 1, TPX-100 vs placebo treated knees, baseline to 12 months, 200 mg) of the same sequence?
Its value is −0.26.

What about the “Score Change from Baseline to 12 Months, Index: Twisting/pivoting on your knee” value ([1]; KOOS Pain Question 2 (severity, score 0-4), TPX-100 treated knees, 200 mg intra-articular, 4 weekly doses, 12 months) of the same sequence?
Its value is −0.19.

And the “Difference = [Index score change] − [Control score change]: Twisting/pivoting on your knee” value ([1]; KOOS Pain Question 2, TPX-100 vs placebo treated knees, baseline to 12 months, 200 mg)?
Its value is −0.09.

What about the “Score Change from Baseline to 12 Months, Index: Straightening knee fully moving” value ([1]; KOOS Pain Question 3 (severity, score 0-4), TPX-100 treated knees, 200 mg intra-articular, 4 weekly doses, 12 months) of the same sequence?
The value was −0.30.

What about the “Difference = [Index score change] − [Control score change]: Straightening knee fully moving” value ([1]; KOOS Pain Question 3, TPX-100 vs placebo treated knees, baseline to 12 months, 200 mg) of the same sequence?
The value was −0.12.

What about the “Score Change from Baseline to 12 Months, Index: Bending knee fully” value ([1]; KOOS Pain Question 4 (severity, score 0-4), TPX-100 treated knees, 200 mg intra-articular, 4 weekly doses, 12 months) of the same sequence?
The value was −0.45.

What about the “Difference = [Index score change] − [Control score change]: Bending knee fully” value ([1]; KOOS Pain Question 4, TPX-100 vs placebo treated knees, baseline to 12 months, 200 mg) of the same sequence?
The value was −0.24.

What about the “Score Change from Baseline to 12 Months, Index: Walking on flat surface” value ([1]; KOOS Pain Question 5 (severity, score 0-4), TPX-100 treated knees, 200 mg intra-articular, 4 weekly doses, 12 months) of the same sequence?
The value was −0.25.

What about the “Difference = [Index score change] − [Control score change]: Walking on flat surface” value ([1]; KOOS Pain Question 5, TPX-100 vs placebo treated knees, baseline to 12 months, 200 mg) of the same sequence?
Its value is −0.12.

And the “Score Change from Baseline to 12 Months, Index: Going up or down stairs” value ([1]; KOOS Pain Question 6 (severity, score 0-4), TPX-100 treated knees, 200 mg intra-articular, 4 weekly doses, 12 months)?
The value was −0.51.

And the “Difference = [Index score change] − [Control score change]: Going up or down stairs” value ([1]; KOOS Pain Question 6, TPX-100 vs placebo treated knees, baseline to 12 months, 200 mg)?
The value was −0.33.

And the “Score Change from Baseline to 12 Months, Index: At night while in bed” value ([1]; KOOS Pain Question 7 (severity, score 0-4), TPX-100 treated knees, 200 mg intra-articular, 4 weekly doses, 12 months)?
Its value is −0.19.

What about the “Difference = [Index score change] − [Control score change]: At night while in bed” value ([1]; KOOS Pain Question 7, TPX-100 vs placebo treated knees, baseline to 12 months, 200 mg) of the same sequence?
The value was 0.00.

What about the “Difference = [Index score change] − [Control score change]: Sitting or lying” value ([1]; KOOS Pain Question 8, TPX-100 vs placebo treated knees, baseline to 12 months, 200 mg) of the same sequence?
Its value is −0.02.

What about the “Score Change from Baseline to 12 Months, Index: Standing upright” value ([1]; KOOS Pain Question 9 (severity, score 0-4), TPX-100 treated knees, 200 mg intra-articular, 4 weekly doses, 12 months) of the same sequence?
The value was −0.34.

What about the “Difference = [Index score change] − [Control score change]: Standing upright” value ([1]; KOOS Pain Question 9, TPX-100 vs placebo treated knees, baseline to 12 months, 200 mg) of the same sequence?
The value was −0.16.

What about the “Pain alleviation in other activities or statuses of KOOS pain” value ([1]; 200 mg) of the same sequence?
The value was “did not show statistically significant improvements”.

What about the “Pain alleviation in other activities or statuses of KOOS pain” value [1, 6] of the same sequence?
The value was “did not show pain alleviation with statistical significance or trend”.

What about the “KOOS Sports and Recreation subscale, Index vs Control knees” value ([1]; at 6 months, 200 mg) of the same sequence?
Its value is “clinically meaningful and statistically significant improvement”.

And the “KOOS knee related quality of life (QOL) subscale, Index vs Control knees” value ([1]; at 12 months, 200 mg)?
Its value is “clinically meaningful and statistically significant improvement”.

And the “Total KOOS pain subscale, Index vs Control knees” value ([1]; at 12 months, 200 mg)?
Its value is “clinically meaningful and statistical trend (p<0.09) of improvement”.

What about the “Total KOOS pain subscale, Index vs Control knees” value ([1]; at 12 months, 200 mg, listed as peptide of SEQ ID No. 1) of the same sequence?
The value was “clinically meaningful improvement”.

What about the “Knee functions, KOOS ADL (Function of Daily Living) and WOMAC function, treated vs placebo-treated knees” value ([1]; 200 mg) of the same sequence?
Its value is “clinically meaningful and statistically significant (p<0.05) improvement”.

And the “Knee functions, KOOS ADL (Function of Daily Living) and WOMAC function, treated vs placebo-treated knees” value [1, 6]?
Its value is “clinically meaningful and highly statistically significant (p=0.008) improvement”.

And the “Total KOOS pain score, treated vs placebo treated knees” value ([1]; until 6 months after the treatment, 200 mg)?
Its value is “very similar”.

What about the Dose-limiting toxicities ([2]; Part A, 20, 50, 100 and 200 mg per intra-articular injection, four weekly) of the same sequence?
Its Dose-limiting toxicities is “no dose-limiting toxicities”.

What about the “Safety and tolerability of treatments” value ([2]; throughout the study period) of the same sequence?
Its value is “safe and well tolerated”.

What about the “Severe adverse events related to drug treatment” value ([2]; throughout the study period) of the same sequence?
Its value is “no severe adverse events likely or possibly related to the drug treatment”.

And the “Severity of treatment-related adverse events” value ([2]; throughout the study period)?
Its value is “mild or moderate, transient”.

What about the “Articular cartilage regeneration compared to vehicle control group” value ([3]; 125 mg and 250 mg, 6 months post-surgery) of the same sequence?
The value was “histologically-confirmed and statistically significant articular cartilage regeneration”.

And the “Safety and tolerability in goats” value ([3]; freely ambulatory animals)?
Its value is “safe and well-tolerated”.

And the “Analgesic or anti-inflammatory activities” value [4]?
The value was “does not have any analgesic or anti-inflammatory activities”.

And the “Analgesic or anti-inflammatory activities” value ([4]; listed as peptide of SEQ ID No. 1)?
The value was “does not have any anti-inflammatory or analgesic activities”.
